Patent publication US20260174766A1, “COMBINATION OF MENIN INHIBITOR(S) AND IMMUNOPROTEASOME INHIBITOR(S) FOR TREATMENT OF LEUKEMIA” (Medizinische Hochschule Hannover, priority 2022, published 2026)

What was measured:
non-MLLr cell lines = test: Cell growth (cell counting after trypan blue exclusion) of non-MLLr cell lines; type: cell-based, human; details: 50 nM or 100 nM PR-957, 96 hours, vs DMSO; FIG. 1G right
Description: MOLM-13, MONO-MAC-6, THP-1, KOPN-8, ML-2, MV-4;11, OCI-AML3, U-937, KASUMI-1, K-562, HL-60 and LAMA-84 cells were purchased from DSMZ (Braunschweig, Germany). Cas9-Blast cell lines are subclones of the respective cell lines and stably transduced with lentiCas9-Blast (Addgene plasmid #52962). Cells were cultured in RPMI 1640 medium (Thermo Fisher Scientific, Waltham, MA, USA) supplemented with 10-20% FBS (Thermo Fisher Scientific) in a humid atmosphere of 5% CO2 at 37° C. MV4;11 cells harboring Menin-inhibitor resistance mediating mutations of Menin were generated by CRISPR-Cas9 technology.
Cellular proliferation was assessed by cell counting after trypan blue exclusion. Apoptosis of cells was measured by flow cytometry using Annexin V/SYTOX® Blue staining following the manufacturer's instruction.

[1] = test system: human MLL-rearranged AML cell lines; test: Cell cycle analysis (EdU, % cells in S phase); type: cell-based; details: 100 nM PR-957, 24 hours; MOLM-13, MV-4;11, ML-2, KOPN-8; FIG. 1I
Description: Immunophenotyping of immature and mature cell compartments and of leukemic cells was performed as described before (Heidel et al., 2013; Heidel et al., 2012). The antibodies used for cell surface staining are provided in Table 1 at the end of section 2 (“Key Resource Table”). Cells were stained in PBS/1% FBS for 1.5 hours at 4° C. SYTOX® Blue Dead Cell Stain (Life Technologies, Darmstadt, Germany) was used to exclude dead cells. Flow cytometry was performed on a LSR-Fortessa or FACS Canto II cytometer (Becton Dickinson, Heidelberg, Germany). Cell cycle analysis was performed using the Click-iT™ Plus EdU Alexa Fluor™ 647 Assay Kit (Thermo Scientific, Waltham, MA, USA) as per the manufacturer's instructions.
Samples were labeled for FACs based analysis of cell cycle using the Click-iTR EdU assay. n=3 independent experiments; paired t test.

[2] = test system: normal hematopoietic cells; test: Normal hematopoiesis: competitive transplantation after in vivo PR-957 treatment; parameters: species or system mouse
MOLM-13 and ML-2 cells = test: Global transcriptome analysis by RNA-sequencing; type: cell-based, human; details: 100 nM PR-957, 72 hours, FIG. 3A
Source text: Cells were harvested and resuspended in TRIzol™, and RNA was extracted using the TRIzol-Chloroform method (Heidel et al., 2013). RNA-seq libraries were generated using SMART-Seq v4 Ultra Low Input RNA Kit (Takara Bio USA Inc., Mountain View, CA, USA) followed by Nextera XT (Illumina, San Diego, CA, USA).
For analysis, 50 bp single-end reads (Illumina) were aligned to reference genome mm10 and gtf.-transcriptome annotation release M7 (GENCODE) using STAR two-pass mode (Dobin et al., 2013).
GENCODE M7 gtf.-file was used for quantification, performed by STAR, followed by normalization, transformation and differential gene expression analysis in DEseq2 (Love et al., 2014). GSEA was carried out on a public server “Gene Pattern” of Broad Institute (Reich et al., 2006). For analysis of the genetic CRISPRCas9 screen, next generation sequencing was performed on an Illumina NextSeq platform (75 bp, single reads) aiming for a minimum of 30Mio reads per sample.
Therefore, it was sought to determine to which extent the inhibition of PSMB8/LMP7 also contributes to the transcriptional regulation of human MLL-target genes. […] This cell line was selected for its sensitivity to PR-957 (FIG. 3D) and ability to be transduced among the MLLr cell lines evaluated above. […]

COc1ccc(C[C@H](NC(=O)[C@H](C)NC(=O)CN2CCOCC2)C(=O)N[C@@H](Cc2ccccc2)C(=O)[C@]2(C)CO2)cc1 [PR-957, (2S)-3-(4-methoxyphenyl)-N-[(2S)-1-[(2S)-2-methyloxiran-2-yl]-1-oxo-3-phenylpropan-2-yl]-2-[[(2S)-2-[(2-morpholin-4-ylacetyl)amino]propanoyl]amino]propanamide]
cell growth in non-MLLr cell lines (non-MLLr cell lines): largely unaffected
cell cycle activity (% of cells in S phase) [1]: reduced cell cycle activity
hematopoietic stem- and progenitor cell abundance ([2]; PR-957 for 3 weeks (10 mg/kg, 5 days/week), FIGS. 2K,L,M): did not show any changes
stem- and progenitor cell chimerism in secondary recipients ([2]; previous PR-957 treatment, FIGS. 2O,P,Q): not affected
peripheral blood chimerism in secondary recipient mice ([2]; until week 16, FIG. 2N): no changes
genes regulated in both cell lines upon treatment (overlap) (MOLM-13 and ML-2 cells): 457 genes
